Legend:
HIV-1 NL4-3 [1] = experiment: microbe, parasite or virus in culture; details: Human immunodeficiency virus 1, NL43, MT2, 120 h
HIV-1 NL4-3 [2] = experiment: Two-drug combination study with Compound 1 (combination indices); assay type: cell-based; details: for Combination Indices at 50% HIV Inhibition (Confidence Interval) / Combination Indices at 75% HIV Inhibition (Confidence Interval) / Combination Indices at 90% HIV Inhibition (Confidence Interval): 95% CI in parentheses; for Overall Result: overall antiviral effect of the two-drug combination with Compound 1, all ratios and effective levels
[3] = combination with Compound 1, EC50 ratio 1:1 (Compound 1:comparator)
[4] = combination with Compound 1, EC50 ratio 1:2.5 (Compound 1:comparator)
[5] = combination with Compound 1, EC50 ratio 2.5:1 (Compound 1:comparator)

Compound | EC50 (HIV-1 NL4-3 [1]) | Combination Indices at 50% HIV Inhibition (Confidence Interval) (HIV-1 NL4-3 [2]; [3]) | Combination Indices at 75% HIV Inhibition (Confidence Interval) (HIV-1 NL4-3 [2]; [3]) | Combination Indices at 90% HIV Inhibition (Confidence Interval) (HIV-1 NL4-3 [2]; [3]) | Combination Indices at 50% HIV Inhibition (Confidence Interval) (HIV-1 NL4-3 [2]; [4]) | Combination Indices at 75% HIV Inhibition (Confidence Interval) (HIV-1 NL4-3 [2]; [4]) | Combination Indices at 90% HIV Inhibition (Confidence Interval) (HIV-1 NL4-3 [2]; [4]) | Combination Indices at 50% HIV Inhibition (Confidence Interval) (HIV-1 NL4-3 [2]; [5]) | Combination Indices at 75% HIV Inhibition (Confidence Interval) (HIV-1 NL4-3 [2]; [5]) | Combination Indices at 90% HIV Inhibition (Confidence Interval) (HIV-1 NL4-3 [2]; [5]) | Overall Result (HIV-1 NL4-3 [2]) | Overall Result (HIV-1 NL4-3 [2]; listed as indinavir) | Overall Result (HIV-1 NL4-3 [2]; listed as atazanavir)
CC(C)(C)NC(=O)[C@@H]1CN(Cc2cccnc2)CCN1C[C@@H](O)C[C@@H](Cc1ccccc1)C(=O)N[C@H]1c2ccccc2C[C@H]1O [Indinavir, indinavir] | 6 nM | 0.64 (0.42, 0.85) | 1.17 (0.63, 1.71) | 2.15 (0.53, 3.78) | 0.92 (0.68, 1.16) | 1.07 (0.68, 1.46) | 1.24 (0.51, 1.97) | 0.41 (0.29, 0.53) | 0.70 (0.42, 0.97) | 1.19 (0.40, 1.97) | Additive- | additive to synergistic | –
COC(=O)N[C@H](C(=O)N[C@@H](Cc1ccccc1)[C@@H](O)CN(Cc1ccc(-c2ccccn2)cc1)NC(=O)[C@@H](NC(=O)OC)C(C)(C)C)C(C)(C)C [Atazanavir, atazanavir] | 9 nM | 0.64 (0.54, 0.73) | 0.60 (0.49, 0.72) | 0.59 (0.43, 0.75) | 0.91 (0.81, 1.20) | 0.90 (0.70 1.10) | 0.90 (0.57, 1.23) | 1.01 (0.80, 1.19) | 1.02 (0.77, 1.28) | 1.09 (0.67, 1.50) | Additive- | – | additive to synergistic

— patent US20060058286A1, “Methods of treating HIV infection” (priority 2004, published 2006)
